Results published in ChEMBL document CHEMBL1201862, “PubChem BioAssay data set” (2004).
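Exposure lasted 48 hours, with cells grown in 96-well plates and compounds tested at five concentrations. Here, GI50 denotes the concentration required for 50% inhibition of growth.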 Activity calls are given as the source filed them. Cut-off read from the data, not from the text of the source: active = GI50 up to about 1.1 µM and inactive = higher.

Tests used:
Experiment in all cases: NCI-60 cell line screen, 48 h
SW-620 = tested on: SW-620
RXF 393 = tested on: RXF 393
M14 = tested on: M14
NCI-H226 = tested on: NCI-H226
UACC-257 = tested on: UACC-257
MDA-MB-231 = tested on: MDA-MB-231
RPMI-8226 = tested on: RPMI-8226
SN12C = tested on: SN12C
SK-MEL-2 = tested on: SK-MEL-2
OVCAR-4 = tested on: OVCAR-4
UO-31 = tested on: UO-31
SK-MEL-28 = tested on: SK-MEL-28
HCT-116 = tested on: HCT-116
HT-29 = tested on: HT-29
NCI/ADR-RES = tested on: NCI/ADR-RES
SF-539 = tested on: SF-539
NCI-H460 = tested on: NCI-H460
MDA-MB-435 = tested on: MDA-MB-435
SNB-19 = tested on: SNB-19
OVCAR-5 = tested on: OVCAR-5

SMILES	GI50 (SW-620)	GI50 (RXF 393)	GI50 (M14)	GI50 (NCI-H226)	GI50 (UACC-257)	GI50 (MDA-MB-231)	GI50 (RPMI-8226)	GI50 (SN12C)	GI50 (SK-MEL-2)	GI50 (OVCAR-4)	GI50 (UO-31)	GI50 (SK-MEL-28)	GI50 (HCT-116)	GI50 (HT-29)	GI50 (NCI/ADR-RES)	GI50 (SF-539)	GI50 (NCI-H460)	GI50 (MDA-MB-435)	GI50 (SNB-19)	GI50 (OVCAR-5)
CC1=Nc2c(O)nc(S)nc2NC(c2c(Cl)cccc2Cl)C1 (centres undefined)	0.971 µM (active)	5.26 µM (inactive)	2.32 µM (inactive)	5.21 µM (inactive)	3.07 µM (inactive)	0.519 µM (active)	0.583 µM (active)	1.42 µM (inactive)	18 µM (inactive)	2.74 µM (inactive)	5.19 µM (inactive)	2.73 µM (inactive)	0.76 µM (active)	0.998 µM (active)	0.193 µM (active)	1.75 µM (inactive)	1.92 µM (inactive)	1.49 µM (inactive)	2.99 µM (inactive)	5.83 µM (inactive)
COc1cc(C2c3c(ccc4ccccc34)C(=O)C3CCC(=O)N32)cc(OC)c1OC (centres undefined)	> 50 µM (inactive)	> 50 µM (inactive)	> 50 µM (inactive)	> 50 µM (inactive)	> 50 µM (inactive)	> 50 µM (inactive)	46.8 µM (inactive)	> 50 µM (inactive)	> 50 µM (inactive)	> 50 µM (inactive)	> 50 µM (inactive)	> 50 µM (inactive)	> 50 µM (inactive)	> 50 µM (inactive)	> 50 µM (inactive)	> 50 µM (inactive)	> 50 µM (inactive)	> 50 µM (inactive)	> 50 µM (inactive)	> 50 µM (inactive)
Cc1c2cccc-2ccc2c1[nH]c1ccccc12	2.36 µM (inactive)	3.21 µM (inactive)	1.73 µM (inactive)	1.97 µM (inactive)	1.68 µM (inactive)	1.76 µM (inactive)	2.43 µM (inactive)	2.34 µM (inactive)	1.8 µM (inactive)	2.23 µM (inactive)	1.63 µM (inactive)	1.75 µM (inactive)	2.12 µM (inactive)	3.78 µM (inactive)	3.34 µM (inactive)	1.81 µM (inactive)	1.85 µM (inactive)	2.27 µM (inactive)	2.7 µM (inactive)	2.12 µM (inactive)
COc1ccc2nc3cc([N+](=O)[O-])ccc3c(NNc3ccc(Cl)cc3)c2c1	12.1 µM (inactive)	> 39.7 µM (inactive)	34.7 µM (inactive)	1.1 µM (active)	1.01 µM (active)	19.6 µM (inactive)	22.8 µM (inactive)	33.1 µM (inactive)	18.7 µM (inactive)	38.5 µM (inactive)	34.3 µM (inactive)	70 µM (inactive)	5.07 µM (inactive)	15.2 µM (inactive)	32.6 µM (inactive)	37.8 µM (inactive)	2.88 µM (inactive)	26.1 µM (inactive)	75.7 µM (inactive)	2.31 µM (inactive)
N=C(N)NCC[C@H](NC(=O)OCCCCCn1ccc(=O)[nH]c1=O)C(=O)O	> 100 µM (inactive)	> 100 µM (inactive)	–	> 100 µM (inactive)	> 100 µM (inactive)	> 100 µM (inactive)	> 100 µM (inactive)	> 100 µM (inactive)	> 100 µM (inactive)	> 100 µM (inactive)	> 100 µM (inactive)	> 100 µM (inactive)	> 100 µM (inactive)	> 100 µM (inactive)	> 100 µM (inactive)	> 100 µM (inactive)	> 100 µM (inactive)	> 100 µM (inactive)	> 100 µM (inactive)	> 100 µM (inactive)
O=c1cc(/N=N\c2ccc(Cl)cc2)[nH]c(=O)[nH]1	2.33 µM (inactive)	6.37 µM (inactive)	3.95 µM (inactive)	12.9 µM (inactive)	4.83 µM (inactive)	3.6 µM (inactive)	3.19 µM (inactive)	3.98 µM (inactive)	13.3 µM (inactive)	4.42 µM (inactive)	4.82 µM (inactive)	4.69 µM (inactive)	1.94 µM (inactive)	2.35 µM (inactive)	7.4 µM (inactive)	4.44 µM (inactive)	5.52 µM (inactive)	4.84 µM (inactive)	10.3 µM (inactive)	13.6 µM (inactive)
COc1ccc(C2C3=C(COC3=O)OC(C)(C)Oc3cc4c(cc32)OCO4)cc1 (centres undefined)	21.8 µM (inactive)	36.6 µM (inactive)	24.2 µM (inactive)	> 55.3 µM (inactive)	38.3 µM (inactive)	18.6 µM (inactive)	34.1 µM (inactive)	37 µM (inactive)	37.8 µM (inactive)	33.9 µM (inactive)	28.8 µM (inactive)	43.1 µM (inactive)	25.4 µM (inactive)	24.4 µM (inactive)	18.5 µM (inactive)	24.2 µM (inactive)	26.7 µM (inactive)	3.51 µM (inactive)	45.3 µM (inactive)	56.8 µM (inactive)
